The target in the experiment is T1, CatSper channel (CatSper1) (Mus musculus, UniProt A2ARP9+Q80W99+Q8BVN3+Q91ZR5).
T1 construct: native channel in mouse sperm; with CatSper2, CatSper3, CatSper4
The experiment can be described thus: whole-sperm patch clamp of native CatSper currents; also SBFI and fura-2 photometry (abstract IC50 […] by optical assay). Type of experiment: cell-based.

The values below come from article PMC2729922, “Pharmacological Targeting of Native CatSper Channels Reveals a Required Role in Maintenance of Sperm Hyperactivation” (PLoS ONE, 2009).

SMILES strings stand for the structures.

T1 sequence (Q91ZR5 whole entry): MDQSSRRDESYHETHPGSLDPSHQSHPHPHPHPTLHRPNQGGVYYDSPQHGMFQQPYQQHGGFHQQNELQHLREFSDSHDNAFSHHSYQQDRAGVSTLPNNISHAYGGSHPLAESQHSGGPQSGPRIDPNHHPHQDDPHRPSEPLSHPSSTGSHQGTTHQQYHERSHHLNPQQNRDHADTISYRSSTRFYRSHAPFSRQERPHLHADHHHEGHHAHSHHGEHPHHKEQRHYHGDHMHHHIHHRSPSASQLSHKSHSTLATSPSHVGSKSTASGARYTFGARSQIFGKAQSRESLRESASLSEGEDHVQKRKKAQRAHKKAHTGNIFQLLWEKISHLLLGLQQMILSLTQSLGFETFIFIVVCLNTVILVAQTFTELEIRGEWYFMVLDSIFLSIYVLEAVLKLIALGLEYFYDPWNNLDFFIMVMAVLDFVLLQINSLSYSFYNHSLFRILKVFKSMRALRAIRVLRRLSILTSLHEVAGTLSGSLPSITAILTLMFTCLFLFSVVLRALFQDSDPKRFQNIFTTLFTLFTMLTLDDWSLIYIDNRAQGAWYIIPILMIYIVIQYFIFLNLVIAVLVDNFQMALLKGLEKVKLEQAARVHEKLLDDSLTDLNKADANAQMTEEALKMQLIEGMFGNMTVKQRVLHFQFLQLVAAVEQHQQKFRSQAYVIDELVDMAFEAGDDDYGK
T1 sequence (A2ARP9 whole entry): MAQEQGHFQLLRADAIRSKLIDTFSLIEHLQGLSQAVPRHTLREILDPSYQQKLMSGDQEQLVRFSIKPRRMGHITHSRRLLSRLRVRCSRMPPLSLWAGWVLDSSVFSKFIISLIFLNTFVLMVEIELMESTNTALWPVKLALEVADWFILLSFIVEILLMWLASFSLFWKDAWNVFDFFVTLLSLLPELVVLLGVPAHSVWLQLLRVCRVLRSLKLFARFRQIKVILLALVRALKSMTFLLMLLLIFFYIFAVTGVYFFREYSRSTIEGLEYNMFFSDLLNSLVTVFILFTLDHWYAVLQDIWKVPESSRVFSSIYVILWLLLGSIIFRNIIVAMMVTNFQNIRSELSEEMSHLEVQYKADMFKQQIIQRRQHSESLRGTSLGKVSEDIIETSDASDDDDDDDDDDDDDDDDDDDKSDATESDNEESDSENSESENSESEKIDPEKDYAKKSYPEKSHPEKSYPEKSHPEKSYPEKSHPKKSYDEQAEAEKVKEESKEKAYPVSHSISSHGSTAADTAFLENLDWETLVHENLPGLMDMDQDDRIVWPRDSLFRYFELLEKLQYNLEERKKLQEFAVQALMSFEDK
T1 sequence (Q80W99 whole entry): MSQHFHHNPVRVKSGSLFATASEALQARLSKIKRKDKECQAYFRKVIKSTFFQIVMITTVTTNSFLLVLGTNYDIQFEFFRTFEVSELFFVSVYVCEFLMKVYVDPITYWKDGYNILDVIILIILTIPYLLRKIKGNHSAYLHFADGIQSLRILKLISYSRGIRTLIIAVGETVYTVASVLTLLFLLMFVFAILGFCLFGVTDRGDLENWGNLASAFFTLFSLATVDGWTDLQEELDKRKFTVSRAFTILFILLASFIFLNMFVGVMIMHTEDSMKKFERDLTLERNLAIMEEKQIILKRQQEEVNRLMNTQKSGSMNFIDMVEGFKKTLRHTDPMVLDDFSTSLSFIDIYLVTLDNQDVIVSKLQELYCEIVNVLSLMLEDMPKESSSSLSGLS
T1 sequence (Q8BVN3 whole entry): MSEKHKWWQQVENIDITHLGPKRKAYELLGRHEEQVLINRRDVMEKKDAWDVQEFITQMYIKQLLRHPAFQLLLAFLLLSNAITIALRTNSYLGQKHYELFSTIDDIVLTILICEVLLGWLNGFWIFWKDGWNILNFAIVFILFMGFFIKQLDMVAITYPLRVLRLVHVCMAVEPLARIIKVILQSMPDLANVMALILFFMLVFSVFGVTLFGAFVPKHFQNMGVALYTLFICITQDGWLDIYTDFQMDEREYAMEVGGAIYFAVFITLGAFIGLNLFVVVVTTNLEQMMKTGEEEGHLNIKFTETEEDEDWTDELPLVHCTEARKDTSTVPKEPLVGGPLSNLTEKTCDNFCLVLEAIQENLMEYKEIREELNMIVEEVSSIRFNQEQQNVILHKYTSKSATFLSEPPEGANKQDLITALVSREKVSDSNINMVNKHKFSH

The molecule `O=C(c1cccs1)c1no[n+]([O-])c1C(=O)c1cccs1` [HC-056456, 3,4-bis(2-thienylcarbonyl)-1,2,5-oxadiazole-2-ium-2-olate] yielded an IC50 of about 15 µM.
